Data from patent US20140213513A1 (Sanofi, priority 2012, published 2014).
*1 amine or outer side, *2 acyl side, *3 side chain or, on linkers, in order; H or OH if unused. Where a SMILES comes first, the peptide text is derived from it. Side-chain parts run from the residue outwards. [ ]: non-standard residue; d: D form. The star is where a group is joined. γGlu = O=C(O)[C@H](CCC(=O)[*:2])N[*:1]; Palmitoyl = CCCCCCCCCCCCCCCC(=O)*; Aib = CC(C)(N)C(=O)O

Columns and labels:
Assay type in all cases: cell-based
Conditions in all cases: Table 7; cAMP formation
[1] = biological target: T1, human glucagon receptor (hGLUC R) (Homo sapiens, UniProt P47871); assay: cAMP response of HEK-293 cells stably expressing human glucagon receptor (HTRF)
T1 construct: expressed in transfected cells
T1 sequence (P47871 26-477): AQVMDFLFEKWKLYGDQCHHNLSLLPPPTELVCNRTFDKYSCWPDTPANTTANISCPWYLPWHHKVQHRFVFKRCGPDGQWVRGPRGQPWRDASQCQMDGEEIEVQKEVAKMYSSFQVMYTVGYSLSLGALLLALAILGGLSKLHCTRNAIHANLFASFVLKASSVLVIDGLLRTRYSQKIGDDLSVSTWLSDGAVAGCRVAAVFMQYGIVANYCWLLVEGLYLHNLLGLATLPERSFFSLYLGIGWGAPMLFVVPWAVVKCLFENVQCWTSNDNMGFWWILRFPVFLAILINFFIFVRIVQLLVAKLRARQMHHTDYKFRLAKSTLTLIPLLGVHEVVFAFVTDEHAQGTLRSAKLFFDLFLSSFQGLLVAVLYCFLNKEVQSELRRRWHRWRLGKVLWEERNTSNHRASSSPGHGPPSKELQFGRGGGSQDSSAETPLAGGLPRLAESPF
Method: (§1) cAMP content of cells was determined using a kit from Cisbio Corp. (cat. no. 62AM4PEC) based on HTRF (Homogenous Time Resolved Fluorescence). For preparation, cells were split into T175 culture flasks and grown overnight to near confluency in medium (DMEM/10% FBS). Medium was then removed and cells washed with PBS lacking calcium and magnesium, followed by proteinase treatment with accutase (Sigma-Aldrich cat. no. A6964). Detached cells were washed and resuspended in assay buffer (1×HBSS; 20 mM HEPES, 0.1% BSA, 2 mM IBMX) and cellular density determined. They were then diluted to 400000 cells/ml and 25 μl-aliquots dispensed into the wells of 96-well plates. For measurement, 25 μl of test compound in assay buffer was added to the wells, followed by incubation for 30 minutes at room temperature.

[2] = biological target: T2, human GLP-1 receptor (hGLP-1 R) (Homo sapiens, UniProt P43220); assay: cAMP response of HEK-293 cells stably expressing human GLP-1 receptor (HTRF)
T2 construct: expressed in transfected cells
T2 sequence (P43220 24-463): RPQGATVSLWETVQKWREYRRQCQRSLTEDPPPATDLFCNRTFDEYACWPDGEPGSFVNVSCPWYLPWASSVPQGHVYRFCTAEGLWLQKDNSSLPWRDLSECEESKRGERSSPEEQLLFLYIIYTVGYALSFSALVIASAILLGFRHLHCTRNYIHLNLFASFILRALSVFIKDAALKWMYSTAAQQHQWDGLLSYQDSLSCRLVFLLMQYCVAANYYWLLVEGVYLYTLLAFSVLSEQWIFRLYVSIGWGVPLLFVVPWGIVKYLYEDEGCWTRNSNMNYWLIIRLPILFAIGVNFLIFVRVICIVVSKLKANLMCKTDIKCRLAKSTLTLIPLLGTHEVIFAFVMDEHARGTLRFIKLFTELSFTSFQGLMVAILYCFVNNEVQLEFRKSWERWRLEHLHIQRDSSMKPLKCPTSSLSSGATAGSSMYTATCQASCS
Method: as §1

[3] = biological target: T3, human GIP receptor (hGIP R) (Homo sapiens, UniProt P48546); assay: cAMP response of HEK-293 cells stably expressing human GIP receptor (HTRF)
T3 construct: expressed in transfected cells
T3 sequence (P48546 22-466): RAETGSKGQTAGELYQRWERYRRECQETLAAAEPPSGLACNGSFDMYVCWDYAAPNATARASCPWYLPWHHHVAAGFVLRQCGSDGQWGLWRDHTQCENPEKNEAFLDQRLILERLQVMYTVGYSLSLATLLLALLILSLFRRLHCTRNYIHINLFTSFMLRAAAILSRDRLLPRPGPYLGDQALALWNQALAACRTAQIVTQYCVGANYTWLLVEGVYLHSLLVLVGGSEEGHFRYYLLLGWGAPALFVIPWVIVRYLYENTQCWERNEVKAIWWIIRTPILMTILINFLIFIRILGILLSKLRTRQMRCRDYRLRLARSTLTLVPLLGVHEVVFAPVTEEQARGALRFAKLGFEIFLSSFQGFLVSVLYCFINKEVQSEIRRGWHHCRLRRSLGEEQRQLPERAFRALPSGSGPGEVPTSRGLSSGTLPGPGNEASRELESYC
Method: as §1

Compound | EC50 [1] | EC50 [2] | EC50 [3]
CCCCCCCCCCCCCCCC(=O)N[C@@H](CCC(=O)NCCCC[C@H](NC(=O)[C@H](CCC(N)=O)NC(=O)[C@@H](NC(=O)[C@H](CO)NC(=O)[C@H](CC(C)C)NC(=O)[C@H](CC(=O)O)NC(=O)[C@H](CO)NC(=O)[C@@H](NC(=O)[C@H](Cc1ccccc1)NC(=O)[C@@H](NC(=O)CNC(=O)[C@H](CCC(N)=O)NC(=O)C(C)(C)NC(=O)[C@@H](N)Cc1ccc(O)cc1)[C@@H](C)O)[C@@H](C)O)[C@@H](C)CC)C(=O)N[C@@H](CC(=O)O)C(=O)N[C@@H](CCC(=O)O)C(=O)N[C@@H](CCCNC(=N)N)C(=O)N[C@@H](C)C(=O)N[C@@H](C)C(=O)N[C@@H](CCCCN)C(=O)N[C@@H](CC(=O)O)C(=O)N[C@@H](Cc1ccccc1)C(=O)N[C@H](C(=O)N[C@@H](CCC(=O)O)C(=O)N[C@@H](Cc1c[nH]c2ccccc12)C(=O)N[C@@H](CC(C)C)C(=O)N[C@@H](CCCCN)C(=O)N[C@@H](C)C(=O)NCC(=O)NCC(=O)N1CCC[C@H]1C(=O)N[C@@H](CO)C(=O)N[C@@H](CO)C(=O)NCC(=O)N[C@@H](C)C(=O)N1CCC[C@H]1C(=O)N1CCC[C@H]1C(=O)N1CCC[C@H]1C(=O)N[C@@H](CO)C(N)=O)[C@@H](C)CC)C(=O)O [SEQ ID NO: 35, Y-Aib-Q-G-T-F-T-S-D-L-S-I-Q-K(yE-x53)-DERAAKDFIEWLKAGGPSSGAPPPS-NH2] (H-Y[Aib]QGTFTSDLSIQK([γGlu-Palmitoyl])DERAAKDFIEWLKAGGPSSGAPPPS-NH2) | 0.123 nM | 0.0035 nM | 0.0182 nM
CCCCCCCCCCCCCCCC(=O)N[C@@H](CCC(=O)NCCCC[C@H](NC(=O)[C@H](CCC(N)=O)NC(=O)[C@H](CCCCN)NC(=O)[C@H](CO)NC(=O)[C@H](CC(C)C)NC(=O)[C@H](CC(=O)O)NC(=O)[C@H](CO)NC(=O)[C@@H](NC(=O)[C@H](Cc1ccccc1)NC(=O)[C@@H](NC(=O)CNC(=O)[C@H](CCC(N)=O)NC(=O)C(C)(C)NC(=O)[C@@H](N)Cc1ccc(O)cc1)[C@@H](C)O)[C@@H](C)O)C(=O)N[C@@H](CC(=O)O)C(=O)N[C@@H](CO)C(=O)N[C@@H](CCCNC(=N)N)C(=O)N[C@@H](C)C(=O)N[C@@H](C)C(=O)N[C@@H](CCCNC(=N)N)C(=O)N[C@@H](CC(=O)O)C(=O)N[C@@H](Cc1ccccc1)C(=O)N[C@H](C(=O)N[C@@H](CCC(=O)O)C(=O)N[C@@H](Cc1c[nH]c2ccccc12)C(=O)N[C@@H](CC(C)C)C(=O)N[C@@H](CCCCN)C(=O)N[C@@H](C)C(=O)NCC(=O)NCC(=O)N1CCC[C@H]1C(=O)N[C@@H](CO)C(=O)N[C@@H](CO)C(=O)NCC(=O)N[C@@H](C)C(=O)N1CCC[C@H]1C(=O)N1CCC[C@H]1C(=O)N1CCC[C@H]1C(=O)N[C@@H](CO)C(N)=O)[C@@H](C)CC)C(=O)O [SEQ ID NO: 56, Y-Aib-Q-G-T-F-T-S-D-L-S-K-Q-K(yE-x53)-DSRAARDFIEWLKAGGPSSGAPPPS-NH2] (H-Y[Aib]QGTFTSDLSKQK([γGlu-Palmitoyl])DSRAARDFIEWLKAGGPSSGAPPPS-NH2) | 0.0199 nM | 0.0046 nM | 0.162 nM
CCCCCCCCCCCCCCCC(=O)N[C@@H](CCC(=O)NCCCC[C@H](NC(=O)[C@H](CCC(N)=O)NC(=O)[C@@H](NC(=O)[C@H](CO)NC(=O)[C@H](CC(C)C)NC(=O)[C@H](CC(=O)O)NC(=O)[C@H](CO)NC(=O)[C@@H](NC(=O)[C@H](Cc1ccccc1)NC(=O)[C@@H](NC(=O)CNC(=O)[C@H](CCC(N)=O)NC(=O)C(C)(C)NC(=O)[C@@H](N)Cc1ccc(O)cc1)[C@@H](C)O)[C@@H](C)O)[C@@H](C)CC)C(=O)N[C@@H](CCC(=O)O)C(=O)N[C@@H](CCCCN)C(=O)NC(C)(C)C(=O)N[C@@H](C)C(=O)N[C@@H](C)C(=O)NC(C)(C)C(=O)N[C@@H](CCC(=O)O)C(=O)N[C@@H](Cc1ccccc1)C(=O)N[C@H](C(=O)N[C@@H](CCC(=O)O)C(=O)N[C@@H](Cc1c[nH]c2ccccc12)C(=O)N[C@@H](CC(C)C)C(=O)N[C@@H](CCCCN)C(=O)N[C@@H](CC(N)=O)C(=O)N[C@H](C(=O)NCC(=O)N1CCC[C@H]1C(=O)N[C@@H](CO)C(=O)N[C@@H](CO)C(=O)NCC(=O)N[C@@H](C)C(=O)N1CCC[C@H]1C(=O)N1CCC[C@H]1C(=O)N1CCC[C@H]1C(=O)N[C@@H](CO)C(N)=O)[C@@H](C)O)[C@@H](C)CC)C(=O)O [SEQ ID NO: 9, Y-Aib-Q-G-T-F-T-S-D-L-S-I-Q-K(yE-x53)-E-K-Aib-A-A-Aib-E-F-I-E-W-L-K-N-T-G-P-S-S-G-A-P-P-P-S-NH2] (H-Y[Aib]QGTFTSDLSIQK([γGlu-Palmitoyl])EK[Aib]AA[Aib]EFIEWLKNTGPSSGAPPPS-NH2) | 0.445 nM | 0.0055 nM | 0.009 nM
CCCCCCCCCCCCCCCC(=O)N[C@@H](CCC(=O)NCCCC[C@H](NC(=O)[C@H](CCC(N)=O)NC(=O)[C@@H](NC(=O)[C@H](CO)NC(=O)[C@H](CC(C)C)NC(=O)[C@H](CC(=O)O)NC(=O)[C@H](CO)NC(=O)[C@@H](NC(=O)[C@H](Cc1ccccc1)NC(=O)[C@@H](NC(=O)CNC(=O)[C@H](CCC(=O)O)NC(=O)C(C)(C)NC(=O)[C@@H](N)Cc1ccc(O)cc1)[C@@H](C)O)[C@@H](C)O)[C@@H](C)CC)C(=O)N[C@@H](CC(=O)O)C(=O)N[C@@H](CCCCN)C(=O)N[C@@H](CCCNC(=N)N)C(=O)N[C@@H](C)C(=O)N[C@@H](C)C(=O)N[C@@H](CCC(N)=O)C(=O)N[C@@H](CC(C)C)C(=O)N[C@@H](Cc1ccccc1)C(=O)N[C@H](C(=O)N[C@@H](CCC(=O)O)C(=O)N[C@@H](Cc1c[nH]c2ccccc12)C(=O)N[C@@H](CC(C)C)C(=O)N[C@@H](CCCCN)C(=O)N[C@@H](CC(N)=O)C(=O)NCC(=O)NCC(=O)N1CCC[C@H]1C(=O)N[C@@H](CO)C(=O)N[C@@H](CO)C(=O)NCC(=O)N[C@@H](C)C(=O)N1CCC[C@H]1C(=O)N1CCC[C@H]1C(=O)N1CCC[C@H]1C(=O)N[C@@H](CO)C(N)=O)[C@@H](C)CC)C(=O)O [SEQ ID NO: 55, Y-Aib-E-G-T-F-T-S-D-L-S-I-Q-K(yE-x53)-DKRAAQLFIEWLKNGGPSSGAPPPS-NH2] (H-Y[Aib]EGTFTSDLSIQK([γGlu-Palmitoyl])DKRAAQLFIEWLKNGGPSSGAPPPS-NH2) | 18.3 nM | 0.0161 nM | 0.0156 nM
CCCCCCCCCCCCCCCC(=O)N[C@@H](CCC(=O)NCCCC[C@H](NC(=O)[C@H](CCC(N)=O)NC(=O)[C@H](CCCCN)NC(=O)[C@H](CO)NC(=O)[C@H](CC(C)C)NC(=O)[C@H](CC(=O)O)NC(=O)[C@H](CO)NC(=O)[C@@H](NC(=O)[C@H](Cc1ccccc1)NC(=O)[C@@H](NC(=O)CNC(=O)[C@H](CCC(=O)O)NC(=O)C(C)(C)NC(=O)[C@@H](N)Cc1ccc(O)cc1)[C@@H](C)O)[C@@H](C)O)C(=O)N[C@@H](CC(=O)O)C(=O)N[C@@H](CCCCN)C(=O)N[C@@H](CCCNC(=N)N)C(=O)N[C@@H](C)C(=O)N[C@@H](C)C(=O)N[C@@H](CCC(N)=O)C(=O)N[C@@H](CC(=O)O)C(=O)N[C@@H](Cc1ccccc1)C(=O)N[C@H](C(=O)N[C@@H](CCC(=O)O)C(=O)N[C@@H](Cc1c[nH]c2ccccc12)C(=O)N[C@@H](CC(C)C)C(=O)N[C@@H](CCCCN)C(=O)N[C@@H](CC(N)=O)C(=O)NCC(=O)NCC(=O)N1CCC[C@H]1C(=O)N[C@@H](CO)C(=O)N[C@@H](CO)C(=O)NCC(=O)N[C@@H](C)C(=O)N1CCC[C@H]1C(=O)N1CCC[C@H]1C(=O)N1CCC[C@H]1C(=O)N[C@@H](CO)C(N)=O)[C@@H](C)CC)C(=O)O [SEQ ID NO: 30, Y-Aib-E-G-T-F-T-S-D-L-S-K-Q-K(yE-x53)-DKRAAQDFIEWLKNGGPSSGAPPPS-NH2] (H-Y[Aib]EGTFTSDLSKQK([γGlu-Palmitoyl])DKRAAQDFIEWLKNGGPSSGAPPPS-NH2) | 1.45 nM | 0.005 nM | 0.0163 nM
